Measured values as given in PubChem BioAssay AID1963973 (Molecular Pharmacology Branch, DTP, NCI, 2024).
pIC50: −log10 of the molar value.

Tested on: 883617-216-R-J1-PDC tumor spheroids, viability
Assay: Anticancer human tumor 883617-216-R-J1-PDC patient-derived bladder carcinoma cell line growth inhibition [PI3K]
Settings: spheroids with HUVEC and MSC; for pIC50: curve of first compound; for viability, T/C: stronger effect = lower value
In short: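 Tumor cells grown as multi-cell spheroids with HUVEC endothelial cells and MSC fibroblast-like stroma were treated with targeted agents combined with inavolisib, alpelisib, duvelisib or copanlisib. Doses fell in half-log steps from near clinical Cmax, else from 10 microM. Viability was measured.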

[1] = second compound 0.0316 µM, first compound 0.0316 µM
[2] = second compound 0.0316 µM, first compound 0.1 µM
[3] = second compound 0.1 µM, first compound 0.0316 µM
[4] = second compound 0.1 µM, first compound 0.1 µM
[5] = second compound 0.316 µM, first compound 0.0316 µM
[6] = second compound 0.316 µM, first compound 0.1 µM
[7] = second compound 1 µM, first compound 0.0316 µM
[8] = second compound 1 µM, first compound 0.1 µM
[9] = second compound 3.16 µM, first compound 0.0316 µM
[10] = second compound 3.16 µM, first compound 0.1 µM
[11] = second compound 10 µM, first compound 0.0316 µM
[12] = second compound 10 µM, first compound 0.1 µM
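Also: spheroids exposed to agents for 7 days before the viability read.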

Structure (SMILES): C[C@@H](NC(=O)c1ncnc(N)c1Cl)c1ncc(C(=O)Nc2cc(C(F)(F)F)c(Cl)cn2)s1 + CC(Nc1ncnc2nc[nH]c12)c1cc2cccc(Cl)c2c(=O)n1-c1ccccc1
- pIC50 (second compound 0.0316 µM): < 5.00
- pIC50 (second compound 0.1 µM): < 5.00
- pIC50 (second compound 0.316 µM): < 5.00
- pIC50 (second compound 1 µM): < 5.00
- pIC50 (second compound 3.16 µM): < 5.00
- pIC50 (second compound 10 µM): > 7.50
- viability, T/C [1]: 88.8%
- viability, T/C [2]: 87.1%
- viability, T/C (second compound 0.0316 µM, first compound 0.316 µM): 81.4%
- viability, T/C (second compound 0.0316 µM, first compound 1 µM): 99.8%
- viability, T/C (second compound 0.0316 µM, first compound 3.16 µM): 78.1%
- viability, T/C (second compound 0.0316 µM, first compound 10 µM): 64.8%
- viability, T/C [3]: 90%
- viability, T/C [4]: 85.6%
- viability, T/C (second compound 0.1 µM, first compound 0.316 µM): 91.3%
- viability, T/C (second compound 0.1 µM, first compound 1 µM): 91.8%
- viability, T/C (second compound 0.1 µM, first compound 3.16 µM): 81.2%
- viability, T/C (second compound 0.1 µM, first compound 10 µM): 58.2%
- viability, T/C [5]: 85.5%
- viability, T/C [6]: 96.2%
- viability, T/C (second compound 0.316 µM, first compound 0.316 µM): 90.3%
- viability, T/C (second compound 0.316 µM, first compound 1 µM): 74%
- viability, T/C (second compound 0.316 µM, first compound 3.16 µM): 78.4%
- viability, T/C (second compound 0.316 µM, first compound 10 µM): 76.2%
- viability, T/C [7]: 80.3%
- viability, T/C [8]: 82.1%
- viability, T/C (second compound 1 µM, first compound 0.316 µM): 90.4%
- viability, T/C (second compound 1 µM, first compound 1 µM): 74.4%
- viability, T/C (second compound 1 µM, first compound 3.16 µM): 75.8%
- viability, T/C (second compound 1 µM, first compound 10 µM): 50.1%
- viability, T/C [9]: 58.3%
- viability, T/C [10]: 56.5%
- viability, T/C (second compound 3.16 µM, first compound 0.316 µM): 60%
- viability, T/C (second compound 3.16 µM, first compound 1 µM): 58.2%
- viability, T/C (second compound 3.16 µM, first compound 3.16 µM): 65.2%
- viability, T/C (second compound 3.16 µM, first compound 10 µM): 51.7%
- viability, T/C [11]: 36.9%
- viability, T/C [12]: 43.9%
- viability, T/C (second compound 10 µM, first compound 0.316 µM): 45.8%
- viability, T/C (second compound 10 µM, first compound 1 µM): 44.6%
- viability, T/C (second compound 10 µM, first compound 3.16 µM): 55.7%
- viability, T/C (second compound 10 µM, first compound 10 µM): 40.4%

Structure (SMILES): Cn1ncnc1[C@H]1c2n[nH]c(=O)c3cc(F)cc(c23)N[C@@H]1c1ccc(F)cc1 + CC(Nc1ncnc2nc[nH]c12)c1cc2cccc(Cl)c2c(=O)n1-c1ccccc1
- pIC50 (second compound 0.0316 µM): < 7.00
- pIC50 (second compound 0.1 µM): < 7.00
- pIC50 (second compound 0.316 µM): < 7.00
- pIC50 (second compound 1 µM): < 7.00
- pIC50 (second compound 3.16 µM): 7.14
- pIC50 (second compound 10 µM): 9.06
- viability, T/C (second compound 0.0316 µM, first compound 0.000316 µM): 99%
- viability, T/C (second compound 0.0316 µM, first compound 0.001 µM): 106%
- viability, T/C (second compound 0.0316 µM, first compound 0.00316 µM): 72.5%
- viability, T/C (second compound 0.0316 µM, first compound 0.01 µM): 86.4%
- viability, T/C [1]: 76.8%
- viability, T/C [2]: 51%
- viability, T/C (second compound 0.1 µM, first compound 0.000316 µM): 108%
- viability, T/C (second compound 0.1 µM, first compound 0.001 µM): 101%
- viability, T/C (second compound 0.1 µM, first compound 0.00316 µM): 72.6%
- viability, T/C (second compound 0.1 µM, first compound 0.01 µM): 66.1%
- viability, T/C [3]: 74.9%
- viability, T/C [4]: 67%
- viability, T/C (second compound 0.316 µM, first compound 0.000316 µM): 82.4%
- viability, T/C (second compound 0.316 µM, first compound 0.001 µM): 82.6%
- viability, T/C (second compound 0.316 µM, first compound 0.00316 µM): 85.1%
- viability, T/C (second compound 0.316 µM, first compound 0.01 µM): 70.8%
- viability, T/C [5]: 54.5%
- viability, T/C [6]: 65.4%
- viability, T/C (second compound 1 µM, first compound 0.000316 µM): 84.6%
- viability, T/C (second compound 1 µM, first compound 0.001 µM): 80.1%
- viability, T/C (second compound 1 µM, first compound 0.00316 µM): 66.1%
- viability, T/C (second compound 1 µM, first compound 0.01 µM): 62%
- viability, T/C [7]: 62.5%
- viability, T/C [8]: 57.5%
- viability, T/C (second compound 3.16 µM, first compound 0.000316 µM): 81.1%
- viability, T/C (second compound 3.16 µM, first compound 0.001 µM): 71%
- viability, T/C (second compound 3.16 µM, first compound 0.00316 µM): 60.1%
- viability, T/C (second compound 3.16 µM, first compound 0.01 µM): 58.4%
- viability, T/C [9]: 56.3%
- viability, T/C [10]: 46.6%
- viability, T/C (second compound 10 µM, first compound 0.000316 µM): 61.6%
- viability, T/C (second compound 10 µM, first compound 0.001 µM): 41.7%
- viability, T/C (second compound 10 µM, first compound 0.00316 µM): 45%
- viability, T/C (second compound 10 µM, first compound 0.01 µM): 40.5%
- viability, T/C [11]: 35.5%
- viability, T/C [12]: 29.4%
